{
  "source": "patent US12201608B2",
  "about": "“Methods for treating Parkinson's disease by administering resiniferatoxin” (Sorrento Therapeutics, Inc., priority 2018, dated 2025)",
  "key": {"[1]": {"assay": "Pilot tolerability study of intrathecal RTX infusion", "type": "in vivo, C57Bl/6J mice", "description": "The purpose of this study was to investigate the effects of single intrathecal administration of RTX on the AAV-A53T mouse model of PD-like pathology. Prior to this study start, a pilot tolerability study was conducted in which 16 male and 16 female C57Bl/6J mice were infused with RTX at two doses (either 0.04 μg or 0.125 μg) and followed up for 24 hours thereafter to observe any possible adverse effects of the treatment.\nOf the 32 total mice used in the pilot study arm, in total 4 mice died during the 24 hour monitoring period after intrathecal infusion of RTX. Two females treated with 0.125 μg dose were found dead in cage within 4-24 hours after infusion due to unknown reason."}, "[2]": {"assay": "Body weight monitoring in AAV-A53T / AAV-Null infused mice", "type": "in vivo, C57Bl/6J male mice", "conditions": "single intrathecal 0.04 μg or 0.125 μg, 7 or 14 days after AAV-A53T or AAV-Null infusion, 8 week study, two-way ANOVA", "description": "(§1) For this study, a total of 110 male C57Bl/6J mice two months of age were infused with either AAV-A53T (90 mice) or AAV-Null (20 mice) into substantia nigra unilaterally to induce PD-like pathology or to serve as sham controls, respectively. Mice infused with AAV-Null (empty) vector (“sham-infused” mice) were used in order to control for the effect of the viral infusion. After 7 or 14 days of AAV-A53T mediated disease model induction, the mice were treated with RTX (0.04 μg or 0.125 μg) (5 μL volume, prepared from a 25 μg/ml RTX solution containing Polysorbate 80 at 0.03% w/v, dextrose at 0.05% w/v, Phosphate Buffer at 30 mM, and NaCl 0.54% w/v, pH 7.2, and diluted in saline as needed) by single intrathecal infusion at lumbar spinal cord area. One AAV-Null and AAV-A53T infused group per each time point were treated with vehicle instead of RTX.\n(§2) The mice were then treated with RTX or vehicle by intrathecal infusion 7 or 14 days after AAV infusion. […]\nBody weight of the animals was monitored two times per week. […] Dopamine and its metabolites were analyzed from ipsilateral and contralateral striata by high performance liquid chromatography (HPLC).\nBody weight of the mice was measured twice-per week (on Mondays and Fridays) for the whole study duration."}, "[3]": {"system": "AAV-A53T mouse model of Parkinson's Disease-like (PD) pathology", "assay": "Fine motor gait analysis accounting for left-right asymmetry (D7 data reevaluated)", "type": "in vivo, C57Bl/6J male mice", "conditions": "for maximum left-right difference of hip angle: vs AAV-A53T Vehicle", "description": "D7 fine motor gait analysis data from the study described above was reevaluated to determine how left-right asymmetry is manifested on kinematic parameters instead of assessing changes which occur bilaterally and that are captured in the “normal” overall gait score.\nTypically, both the left and right sides of an animal are assessed for test parameters and the overall score and discriminant vector is based on the average of both the left and right-side values for a particular parameter. For example, the maximum hip angle is determined by the average of the left and right-side angle and it is similar in both AAV-Null Vehicle and AAV-A53T Vehicle groups. However, as shown in FIGS. 8A-8C when the left and right side measurements of the maximum hip angle were analyzed separately, the hip angle max of AAV-A53T Vehicle treated mice is smaller on the left side (FIG. 8A) than on the right side (FIG. 8B) when compared to AAV-Null mice.\nFine motor gait analysis was performed by creating a discriminant vector using the transformed data set, where left-right difference is used instead of the average of left and right."}, "[4]": {"assay": "Adverse effects and mortality monitoring in the main AAV-A53T study", "type": "in vivo, C57Bl/6J male mice", "description": "as §1, §2\nAnimals were monitored daily by laboratory personnel. […]"}, "[5]": {"conditions": "both RTX groups, vs AAV-A53T Vehicle D7"}},
  "note": "“Also recorded” adds a separate entry of the source.",
  "data": [
    {"smiles": "C=C(C)[C@]12C[C@@H](C)[C@@]34O[C@](Cc5ccccc5)(O[C@@H]1[C@@H]3C=C(COC(=O)Cc1ccc(O)c(OC)c1)C[C@]1(O)C(=O)C(C)=C[C@@H]41)O2", "note": "[RTX, Resiniferatoxin]", "values": [
      {"measurement": "adverse effects in the rest of the mice", "setting": "[1]; 0.04 μg or 0.125 μg, 24 hour follow-up", "value": "No significant adverse effects"},
      {"measurement": "found dead in cage within 4-24 hours after infusion", "setting": "[1]; 0.125 μg dose, unknown reason", "value": "Two females"},
      {"measurement": "died immediately after infusion", "setting": "[1]; 0.125 μg dosing group", "value": "one female and one male mouse"},
      {"measurement": "mice died during the 24 hour monitoring period after intrathecal infusion", "setting": "[1]; 32 mice total (16 male, 16 female), RTX 0.04 μg or 0.125 μg intrathecal", "value": 4, "unit": "mice"},
      {"measurement": "body weight", "setting": "[2]", "value": "steady weight gain was observed similarly in vehicle and RTX treated groups; also recorded: No significant differences between the groups"},
      {"measurement": "body weight", "setting": "[2]; listed as resiniferatoxin", "value": "No significant differences between the groups"},
      {"measurement": "maximum left-right difference of hip angle", "setting": "[3]; AAV-A53T and 0.05 μg RTX (n=14)", "value": "reduction in the maximum difference"},
      {"measurement": "maximum left-right difference of hip angle", "setting": "[3]; AAV-A53T and 0.124 μg RTX (n=14)", "value": "reduction in the maximum difference"},
      {"measurement": "hindlimb peak swing speed, left-right difference", "setting": "[3]; [5]", "value": "reduced"},
      {"measurement": "hindlimb swing speed, left-right difference", "setting": "[3]; [5]", "value": "reduced"},
      {"measurement": "left-right gait difference Discriminant Vector Score", "setting": "[3]; both RTX groups, vs AAV-A53T vehicle, p<0.05 unpaired t-test", "value": "significantly lower"},
      {"measurement": "diagonal interlimb coordination, left-right difference", "setting": "[3]; low and high RTX dose groups", "value": "less of a a diagonal interlimb coordination difference"},
      {"measurement": "mortalities, distribution between groups", "setting": "[4]; 6 mice out of 110 lost including vehicle-treated mice, attributed to surgical procedure and anesthesia", "value": "evenly spread between the vehicle and both RTX low and high dose groups"},
      {"measurement": "adverse effects of intrathecal RTX administration", "setting": "[4]; low or high dose (0.04 μg or 0.125 μg), D7 or D14", "value": "No significant adverse effects"}
    ]}
  ]
}
